# Laboratory results: patent publication US3954814A, “Alkadienylcyclopropanecarboxylates” (Sumitomo Chemical Company, Limited, priority 1971, dated 1976)
# Columns and labels:
# Type in all cases: in vivo
# rice stem borer larvae = test: micro dropping (topical) test on hibernating rice stem borer larvae (Experimental Example 3); details: topical in acetone, head and tail of larvae, 3 days
# Text: The present compounds (1), (4), (8), (10), (14), (15), (22), (32), (36), (38), (41), (44), (48), (50), (51), (52), (53), (61), (66), (68), (72), (73), (80), (81), (90) and (93) and chrysanthemic acid esters corresponding thereto were individually dissolved in acetone to prepare insecticides of various concentrations. Using a micro dropping means, each of the insecticides was dropped to the head and tail of hibernating rice stem borer larvae.
# house flies = test: Campbell's turn table oil spray test on house fly adults (Experimental Example 1); details: Musca domestica, 24 h, oil spray 5 ml, 10 min exposure, mortality after 1 day, read-out: LC50 (50 percent lethal concentration)
# Procedure: The present compounds (1), (4), (8), (10), (14), (15), (20), (22), (32), (36), (38), (41), (44), (48), (50), (51), (52), (53), (61), (66), (68), (72), (73), (78), (80), (81), (90), (93) and (96), and chrysanthemic acid esters and pyrethric acid esters corresponding thereto were individually formulated by use of deodorized kerosene into oil sprays of various test concentrations.
# Using the Campbell's turn table [disclosed in "Soap & Sanitary Chemicals," Vol. 14, No. 6, page 119 (1938)], 5 ml. of each of the oil sprays was sprayed. When 20 seconds had elapsed after the spraying, the shutter was opened, and adults of house flies (a group of about 100 flies) were exposed to the settling mist for 10 minutes and then transferred to an observation cage.
# The above operation was repeated several times to measure the LC50 (50 percent lethal concentration) of each compound.
# [1] = system: Northern house mosquitoes; test: knock-down test of oil sprays on Northern house mosquito adults in (70 cm)^3 glass chamber (Experimental Example 2); details: concentration of oil spray 0.1%
# Procedure: The present compounds (1), (6), (20), (22), (23), (25), (27), (29), (30), (31), (39), (42), (43), (45), (49), (53), (56), (62), (64), (78), (81), (83), (85), (87), (88) and (89), and chrysanthemic acid esters and pyrethric acid esters corresponding thereto were individually formulated by use of deodorized kerosene into oil sprays of various test concentrations.
# About 20 adults of Northern house mosquitoes were liberated in a (70 cm)^3 glass chamber, and 0.7 ml. of each of the oil sprays was sprayed into the chamber under a pressure of 1.5 kg/cm^2 by use of a glass atomizer. Subsequently, the number of knocked-down mosquitoes was counted to calculate the KT50 (50 percent knock down time) of each compound.
compound,measurement,setting,value
"C=CC=CC1C(C(=O)OCc2coc(Cc3ccccc3)c2)C1(C)C (stereo not shown) [Present compound (50), 5-Benzyl-3-furylmethyl 2',2'-dimethyl-3'-(1"",3""-butadienyl)-cyclopropanecarboxylate]",LD50 (50 percent lethal dose),rice stem borer larvae,0.057 γ/larva
same,LC50,house flies,44 µg/mL
"C=CC=CC1C(C(=O)OCc2ccc(Oc3ccccc3)o2)C1(C)C (stereo not shown) [Present compound (72), 5-Phenoxyfurfuryl 2',2'-dimethyl-3'-(1"",3""-butadienyl)-cyclopropanecarboxylate]",LD50 (50 percent lethal dose),rice stem borer larvae,0.034 γ/larva
same,LC50,house flies,41 µg/mL
"CC=CC(C)=CC1C(C(=O)OCc2coc(Cc3ccccc3)c2)C1(C)C (stereo not shown) [Present compound (38), 5-Benzyl-3-furylmethyl 2',2'-dimethyl-3'-(2""-methyl-1"",3""-pentadienyl)-cyclopropanecarboxylate]",LD50 (50 percent lethal dose),rice stem borer larvae,0.102 γ/larva
same,LC50,house flies,66 µg/mL
"CC(C)=CC(C)=CC1C(C(=O)OCc2coc(Cc3ccccc3)c2)C1(C)C (stereo not shown) [Present compound (44), 5-Benzyl-3-furylmethyl 2',2'-dimethyl-3'-(2"",4""-dimethyl-1"",3""-pentadienyl)-cyclopropanecarboxylate]",LD50 (50 percent lethal dose),rice stem borer larvae,0.145 γ/larva
same,LC50,house flies,63 µg/mL
"C=CC(C)=CC1C(C(=O)OCc2cccc(Oc3ccccc3)c2)C1(C)C (stereo not shown) [Present compound (15), 3-Phenoxybenzyl 2',2'-dimethyl-3'-(2""-methyl-1"",3""-butadienyl)-cyclopropanecarboxylate]",LD50 (50 percent lethal dose),rice stem borer larvae,0.29 γ/larva
same,LC50,house flies,68 µg/mL
"C=CC(C)=CC1C(C(=O)OCc2cccc(Cc3ccccc3)c2)C1(C)C (stereo not shown) [Present compound (4), 3-Benzylbenzyl 2',2'-dimethyl-3'-(2""-methyl-1"",3""-butadienyl)-cyclopropanecarboxylate]",LD50 (50 percent lethal dose),rice stem borer larvae,0.71 γ/larva
same,LC50,house flies,110 µg/mL
"C=CC=CC1C(C(=O)OCc2cc3c(o2)CCCC3)C1(C)C (stereo not shown) [Present compound (68), 4,5-Tetramethylenefurfuryl 2',2'-dimethyl-3'-(1"",3""-butadienyl)-cyclopropanecarboxylate]",LD50 (50 percent lethal dose),rice stem borer larvae,0.26 γ/larva
same,LC50,house flies,110 µg/mL
"C=CC=CC1C(C(=O)OCc2cccc(Oc3ccccc3)c2)C1(C)C (stereo not shown) [Present compound (73), 3-Phenoxybenzyl 2',2'-dimethyl-3'-(1"",3""-butadienyl)-cyclopropanecarboxylate]",LD50 (50 percent lethal dose),rice stem borer larvae,0.26 γ/larva
same,LC50,house flies,60 µg/mL
"CC(C)=CC1C(C(=O)OCc2cccc(Cc3ccccc3)c2)C1(C)C (stereo not shown) [3-Benzylbenzyl chrysanthemate, reference compound]",LD50 (50 percent lethal dose),rice stem borer larvae,1.20 γ/larva
same,LC50,house flies,270 µg/mL
"CC(C)=CC1C(C(=O)OCc2cccc(Oc3ccccc3)c2)C1(C)C (stereo not shown) [3-Phenoxybenzyl chrysanthemate, reference compound]",LD50 (50 percent lethal dose),rice stem borer larvae,0.72 γ/larva
same,LC50,house flies,170 µg/mL
"CC(C)=CC=CC1C(C(=O)OCc2coc(Cc3ccccc3)c2)C1(C)C (stereo not shown) [Present compound (52), 5-Benzyl-3-furylmethyl 2',2'-dimethyl-3'-(4""-methyl-1"",3""-pentadienyl)-cyclopropanecarboxylate]",LD50 (50 percent lethal dose),rice stem borer larvae,0.100 γ/larva
same,LC50,house flies,52 µg/mL
"C=CC(C)=CC1C(C(=O)OCC=C(Cl)Cc2ccccc2)C1(C)C (stereo not shown) [Present compound (32), 3-Chloro-4-phenyl-2-butene-1-yl 2',2'-dimethyl-3'-(2""-methyl-1"",3""-butadienyl)-cyclopropanecarboxylate]",LD50 (50 percent lethal dose),rice stem borer larvae,0.52 γ/larva
same,LC50,house flies,190 µg/mL
"CC(C)=CC1C(C(=O)OCC=C(Cl)Cc2ccccc2)C1(C)C (stereo not shown) [3-Chloro-4-phenyl-2-butene-1-yl chrysanthemate, reference compound]",LD50 (50 percent lethal dose),rice stem borer larvae,0.68 γ/larva
same,LC50,house flies,360 µg/mL
"C#CCc1ccc(COC(=O)C2C(C=C(C)C=C)C2(C)C)cc1 (stereo not shown) [Present compound (8), 4-Propargylbenzyl 2',2'-dimethyl-3'-(2""-methyl-1"",3""-butadienyl)-cyclopropanecarboxylate]",LD50 (50 percent lethal dose),rice stem borer larvae,0.37 γ/larva
same,LC50,house flies,500 µg/mL
"C=CCc1cc(C)c(COC(=O)C2C(C=C(C)C=C)C2(C)C)c(C)c1 (stereo not shown) [Present compound (36), 2,6-Dimethyl-4-allylbenzyl 2',2'-dimethyl-3'-(2""-methyl-1"",3""-butadienyl)-cyclopropanecarboxylate]",LD50 (50 percent lethal dose),rice stem borer larvae,0.28 γ/larva
same,LC50,house flies,390 µg/mL
"C#CCc1ccc(COC(=O)C2C(C=C(C)C)C2(C)C)cc1 (stereo not shown) [4-Propargylbenzyl chrysanthemate, reference compound]",LD50 (50 percent lethal dose),rice stem borer larvae,0.99 γ/larva
same,LC50,house flies,850 µg/mL
"C#CCc1ccc(C(C#C)OC(=O)C2C(C=C(C)C)C2(C)C)o1 (stereo not drawn) [5-Propargyl-α-ethynylfurfuryl chrysanthemate, reference compound]",KT50 (50 percent knock down time),[1],120 s
same,LC50,house flies,260 µg/mL
"C=CC(C)=CC1C(C(=O)OCc2ccc(Oc3ccccc3)o2)C1(C)C (stereo not shown) [Present compound (14), 5-Phenoxyfurfuryl 2',2'-dimethyl-3'-(2""-methyl-1"",3""-butadienyl)-cyclopropanecarboxylate]",LD50 (50 percent lethal dose),rice stem borer larvae,0.040 γ/larva
same,LC50,house flies,47 µg/mL
"CC=CC=CC1C(C(=O)OCc2coc(Cc3ccccc3)c2)C1(C)C (stereo not shown) [Present compound (51), 5-Benzyl-3-furylmethyl 2',2'-dimethyl-3'-(1"",3""-pentadienyl)-cyclopropanecarboxylate]",LD50 (50 percent lethal dose),rice stem borer larvae,0.065 γ/larva
same,LC50,house flies,56 µg/mL
"CC(C)=CC(C)=CC1C(C(=O)OCc2cccc(Oc3ccccc3)c2)C1(C)C (stereo not shown) [Present compound (48), 3-Phenoxybenzyl 2',2'-dimethyl-3'-(2"",4""-dimethyl-1"",3""-pentadienyl)-cyclopropanecarboxylate]",LD50 (50 percent lethal dose),rice stem borer larvae,0.56 γ/larva
same,LC50,house flies,140 µg/mL
"C#CCc1ccc(COC(=O)C2C(C=CC=C)C2(C)C)cc1 (stereo not shown) [Present compound (66), 4-Propargylbenzyl 2',2'-dimethyl-3'-(1"",3""-butadienyl)-cyclopropanecarboxylate]",LD50 (50 percent lethal dose),rice stem borer larvae,0.31 γ/larva
same,LC50,house flies,350 µg/mL
"C=CC=CC1C(C(=O)OCc2c(C)cc(CC=C)cc2C)C1(C)C (stereo not shown) [Present compound (93), 2,6-Dimethyl-4-allylbenzyl 2',2'-dimethyl-3'-(1"",3""-butadienyl)-cyclopropanecarboxylate]",LD50 (50 percent lethal dose),rice stem borer larvae,0.21 γ/larva
same,LC50,house flies,230 µg/mL
"C=CC=CC1C(C(=O)OCC=C(Cl)Cc2ccccc2)C1(C)C (stereo not shown) [Present compound (90), 3-Chloro-4-phenyl-2-butene-1-yl 2',2'-dimethyl-3'-(1"",3""-butadienyl)-cyclopropanecarboxylate]",LD50 (50 percent lethal dose),rice stem borer larvae,0.43 γ/larva
same,LC50,house flies,170 µg/mL
"CC(C)=CC1C(C(=O)OCc2ccc(Oc3ccccc3)o2)C1(C)C (stereo not shown) [5-Phenoxyfurfuryl chrysanthemate, reference compound]",LD50 (50 percent lethal dose),rice stem borer larvae,0.12 γ/larva
same,LC50,house flies,85 µg/mL
"C=CCc1cc(C)c(COC(=O)C2C(C=C(C)C)C2(C)C)c(C)c1 (stereo not shown) [2,6-Dimethyl-4-allylbenzyl chrysanthemate, reference compound]",LD50 (50 percent lethal dose),rice stem borer larvae,0.35 γ/larva
same,LC50,house flies,650 µg/mL
"C=CC=CC1C(C(=O)OCc2cccc(Cc3ccccc3)c2)C1(C)C (stereo not shown) [Present compound (61), 3-Benzylbenzyl 2',2'-dimethyl-3""-(1"",3""-butadienyl)-cyclopropanecarboxylate]",LD50 (50 percent lethal dose),rice stem borer larvae,0.50 γ/larva
same,LC50,house flies,90 µg/mL
"C#CCc1ccc(C(C#C)OC(=O)C2C(C=CC=C)C2(C)C)o1 (stereo not drawn) [Present compound (78), 5-Propargyl-α-ethynylfurfuryl 2',2'-dimethyl-3'-(1"",3""-butadienyl)-cyclopropanecarboxylate]",KT50 (50 percent knock down time),[1],93 s
same,LC50,house flies,82 µg/mL
"CC=CC(C)=CC1C(C(=O)OCc2cccc(Oc3ccccc3)c2)C1(C)C (stereo not shown) [Present compound (41), 3-Phenoxybenzyl 2',2'-dimethyl-3'-(2""-methyl-1"",3""-pentadienyl)-cyclopropanecarboxylate]",LD50 (50 percent lethal dose),rice stem borer larvae,0.48 γ/larva
same,LC50,house flies,100 µg/mL
"C=CC(C)=CC1C(C(=O)OCc2cc3c(o2)CCCC3)C1(C)C (stereo not shown) [Present compound (10), 4,5-Tetramethylenefurfuryl 2',2'-dimethyl-3'-(2""-methyl-1"",3""-butadienyl)-cyclopropanecarboxylate]",LD50 (50 percent lethal dose),rice stem borer larvae,0.32 γ/larva
same,LC50,house flies,120 µg/mL
